Reference: ChEMBL document CHEMBL3046728, “Modifications to five-substituted 3,3-diethyl-4,5-dihydro-2(3H)-furanones en route to novel muscarinic receptor ligands” (Med Chem Res, 2011)

molecular target: Muscarinic acetylcholine receptor; assay: Displacement of [3H]-QNB from muscarnic receptor in Rattus norvegicus (rat) cerebral cortex after 90 min by scintillation counting analysis; format: tissue-based

Row | SMILES | IC50 [nM]
1 | CCC1(CC)CC(CN2CCN(C(c3ccccc3)c3ccccc3)CC2)OC1=O (stereo unspecified) | 340

molecular target: Muscarinic acetylcholine receptor (Rattus norvegicus) (UniProt P08482+P08483+P08485+P08911+P10980); assay: Displacement of [3H]-QNB from muscarnic receptor in Rattus norvegicus (rat) cerebral cortex at 10 uM after 90 min by scintillation counting analysis; format: tissue-based

Row | SMILES | inhibition [%]
2 | CCC1(CC)CC(CN2CCN(c3ccccc3OC)CC2)OC1=O (stereo unspecified) | 32
3 | CCC1(CC)CC(CN2CCN(c3ccccc3)CC2)OC1=O (stereo unspecified) | 16
4 | CCC1(CC)CC(CN2CCC(c3nc4ccccc4[nH]3)CC2)OC1=O (stereo unspecified) | 46
5 | CCC1(CC)CC(CN2CCN(c3ccccc3C#N)CC2)OC1=O (stereo unspecified) | 31
6 | CCC1(CC)CC(CN2CCN(c3ccc(O)cc3)CC2)OC1=O (stereo unspecified) | 7
7 | CCC1(CC)CC(CN2CCN(c3ccccc3O)CC2)OC1=O (stereo unspecified) | 46
8 | CCC1(CC)CC(CN2CCc3ccccc3C2)OC1=O (stereo unspecified) | 44
9 | CCC1(CC)CC(COC(=O)Nc2ccc(N3CCCCC3)cc2)OC1=O (stereo unspecified) | 31
10 | CCC1(CC)CC(CN2CCC(c3ccccc3)CC2)OC1=O (stereo unspecified) | 68
11 | CCC1(CC)CC(CN2CCN(C(c3ccccc3)c3ccccc3)CC2)OC1=O (stereo unspecified) | 97
12 | CCC1(CC)CC(CN2CCN(c3cccc(OC)c3)CC2)OC1=O (stereo unspecified) | 9
13 | CCC1(CC)CC(CN2CCN(c3ccc(OC)cc3)CC2)OC1=O (stereo unspecified) | 26
14 | CCC1(CC)CC(CN2CCN(C(=O)c3ccccc3)CC2)OC1=O (stereo unspecified) | 5
15 | CCC1(CC)CC(CN2CCN(c3ccc(C#N)cc3)CC2)OC1=O (stereo unspecified) | 18
16 | CCC1(CC)CC(CN2CCN(c3ccc([N+](=O)[O-])cc3)CC2)OC1=O (stereo unspecified) | 18
